According to US20060013866A1, “Transdermal drug delivery formulations with optimal amounts of vasodilators therein” (priority 2004, published 2006):
Each block holds one molecule with its values, some of them ahead of it.

Key:
Format in all cases: in vivo
[1] = Topical ibuprofen vehicle with tocopherol nicotinate applied to rabbits, ibuprofen in plasma over three hours
Method: (§1) Test formulations containing 15% ibuprofen-sodium salt, 5% oleic acid, 10% menthol, 5% propylene glycol, 10% dimethylacetamide, 1% decylmethylsulfoxide, 1% u-care, varying amounts of tocopherol nicotinate in the range of 0-1%, and 52-53% deionized water were each blended in a beaker with a mechanical mixer and heated to 40° C. for 30 minutes until clear, then cooled to room temperature.
(§2) 150 mg of sodium salt-ibuprofen was formulated with a 1-gram dose of the above lipid-based vehicle formulations containing the increasing amounts of the vasodilator tocopherol nicotinate. The Ibuprofen vehicle was topically applied to rabbits and blood samples were taken over a three-hour period. Plasma was prepared and analyzed for the amount of ibuprofen present in the blood. The data represents the integrated value of ibuprofen concentration in the blood for the three hour time period for each concentration of tocopherol nicotinate.

[2] = Topical ibuprofen vehicle with papaverine applied to rabbits, ibuprofen in plasma over three hours; conditions: 150 mg sodium salt-ibuprofen
Method: as §1, with “papaverine ranging from” for “tocopherol nicotinate in the range of”
as §2, with “with” for “with a 1-gram dose of”, “formulatiosn” for “formulations”, “containing” for “containing the”, “papaverine.” for “tocopherol nicotinate.”

[3] = Topical ibuprofen vehicle with tolazoline applied to rabbits, ibuprofen in plasma over three hours; conditions: 150 mg sodium salt-ibuprofen
Method: as §1, with “ibuprofen- sodium” for “ibuprofen-sodium”, “tolazoline ranging from 0-0.1%,” for “tocopherol nicotinate in the range of 0-1%,”, “52.9-53%” for “52-53%”
as §2, with “with” for “with a 1-gram dose of”, “formulatiosn” for “formulations”, “containing” for “containing the”, “tolazoline.” for “tocopherol nicotinate.”

[4] = Maximal blood flow stimulated by vasodilator, laser Doppler perfusion imager
Description: The present invention also relates to the methods needed to obtain the optimal transdermal delivery of drugs as a function of enhanced delivery resulting from the presence of vasodilator chemicals relates to the topical application of therapeutic or diagnostic agents for the systemic or localized distribution of therapeutic or diagnostic agents for the purpose of treating or detecting diseases and medical conditions. The topically applied agents may be administered at different locations on the human body to achieve access to the circulatory system. The inclusion of chemical vasodilator facilitates the transportation of the therapeutic and diagnostic agents. Chemical vasodilators act through a mechanism-specific basis resulting in a stimulation or inhibition of the uptake of the therapeutic or diagnostic agents. […] Transdermal delivery of the drug molecule as a function of the vasodilator is evaluated in a living suitable animal model or human test subject, topically applying the test formulations, which contain varying amounts of vasodilator. […] Effective transdermal drug delivery is measured by determining the amount of drug present in the blood plasma as a function of time following the single application. […]
Maximal blood flow stimulated by the vasodilator tolazoline was measured using a laser Doppler perfusion imager.

integrated value of ibuprofen concentration in the blood (0-3 hr) ([1]; 150 mg sodium salt-ibuprofen in 1-gram dose, Control (no tocopherol nicotinate)): 1030 ng·h/mL
integrated value of ibuprofen concentration in the blood (0-3 hr) ([1]; 150 mg sodium salt-ibuprofen, tocopherol nicotinate 0.00010%): 3980 ng·h/mL
integrated value of ibuprofen concentration in the blood (0-3 hr) ([1]; 150 mg sodium salt-ibuprofen, tocopherol nicotinate 0.00025%): 9480 ng·h/mL
integrated value of ibuprofen concentration in the blood (0-3 hr) ([1]; 150 mg sodium salt-ibuprofen, tocopherol nicotinate 0.00050%): 3120 ng·h/mL
integrated value of ibuprofen concentration in the blood (0-3 hr) ([1]; 150 mg sodium salt-ibuprofen, tocopherol nicotinate 0.0010%): 5080 ng·h/mL
integrated value of ibuprofen concentration in the blood (0-3 hr) ([1]; 150 mg sodium salt-ibuprofen, tocopherol nicotinate 0.0100%): 5840 ng·h/mL
integrated value of ibuprofen concentration in the blood (0-3 hr) ([1]; 150 mg sodium salt-ibuprofen, tocopherol nicotinate 0.100%): 4300 ng·h/mL
integrated value of ibuprofen concentration in the blood (0-3 hr) ([1]; 150 mg sodium salt-ibuprofen, tocopherol nicotinate 1.000%): 4400 ng·h/mL
integrated value of ibuprofen concentration in the blood (0-3 hr) ([2]; Control (no papaverine)): 1030 ng·h/mL
integrated value of ibuprofen concentration in the blood (0-3 hr) ([2]; papaverine 0.00010%): 5120 ng·h/mL
integrated value of ibuprofen concentration in the blood (0-3 hr) ([2]; papaverine 0.00025%): 4470 ng·h/mL
integrated value of ibuprofen concentration in the blood (0-3 hr) ([2]; papaverine 0.00050%): 8370 ng·h/mL
integrated value of ibuprofen concentration in the blood (0-3 hr) ([2]; papaverine 0.0010%): 7620 ng·h/mL
integrated value of ibuprofen concentration in the blood (0-3 hr) ([2]; papaverine 0.0100%): 5720 ng·h/mL
integrated value of ibuprofen concentration in the blood (0-3 hr) ([2]; papaverine 0.100%): 4230 ng·h/mL
integrated value of ibuprofen concentration in the blood (0-3 hr) ([2]; papaverine 1.000%): 6160 ng·h/mL
integrated value of ibuprofen concentration in the blood (0-3 hr) ([3]; Control (no tolazoline)): 1030 ng·h/mL
integrated value of ibuprofen concentration in the blood (0-3 hr) ([3]; tolazoline 0.0010%): 3900 ng·h/mL
integrated value of ibuprofen concentration in the blood (0-3 hr) ([3]; tolazoline 0.0050%): 5240 ng·h/mL
integrated value of ibuprofen concentration in the blood (0-3 hr) ([3]; tolazoline 0.0100%): 5660 ng·h/mL
integrated value of ibuprofen concentration in the blood (0-3 hr) ([3]; tolazoline 0.0500%): 3530 ng·h/mL
integrated value of ibuprofen concentration in the blood (0-3 hr) ([3]; tolazoline 0.100%): 4530 ng·h/mL
Structure (SMILES): CC(C)Cc1ccc(C(C)C(=O)O)cc1 (centres unmarked) [Ibuprofen, ibuprofen]

Structure (SMILES): c1ccc(CC2=NCCN2)cc1 [tolazoline]
concentration of tolazoline at which the maximum blood flow was achieved [4]: 0.5%
